Experimental data as given in ChEMBL document CHEMBL3864157, “The synthesis and antistaphylococcal activity of dehydroabietic acid derivatives: Modifications at C-12” (2016).
In brackets after ≈: the same amount, converted by molar mass.

Legend:
Type in all cases: functional
[1] = test system: Staphylococcus aureus; assay: Antibacterial activity against Staphylococcus aureus Newman
[2] = test system: Staphylococcus aureus; assay: Antibacterial activity against gentamicin-resistant Staphylococcus aureus NRS-108
[3] = test system: Staphylococcus aureus; assay: Antibacterial activity against linezolid-resistant Staphylococcus aureus NRS-271
[4] = test system: Staphylococcus aureus; assay: Antibacterial activity against oxacillin/tetracycline-resistant Staphylococcus aureus NRS-100
[5] = test system: Staphylococcus aureus; assay: Antibacterial activity against erythromycin-resistant Staphylococcus aureus NRS-70
[6] = test system: Staphylococcus aureus; assay: Antibacterial activity against aminoglycosides/tetracycline-resistant Staphylococcus aureus NRS-1

SMILES	MIC [1] [µg/mL]	MIC [2] [µg/mL]	MIC [3] [µg/mL]	MIC [4] [µg/mL]	MIC [5] [µg/mL]	MIC [6] [µg/mL]
CC(C)c1cc2c(cc1C(=NO)C1CCCCC1)[C@@]1(C)CCC[C@@](C)(C(=O)O)[C@@H]1CC2	12.5 to 25 (≈ 29.4 to 58.7 µM)	–	–	–	–	–
C#CCON=C(c1ccccc1)c1cc2c(cc1C(C)C)CC[C@H]1[C@](C)(C(=O)O)CCC[C@]21C	2.5 (≈ 5.46 µM)	3.13 to 6.25 (≈ 6.84 to 13.7 µM)	3.13 to 6.25 (≈ 6.84 to 13.7 µM)	3.13 (≈ 6.84 µM)	1.56 to 2.5 (≈ 3.41 to 5.46 µM)	6.25 to 12.5 (≈ 13.7 to 27.3 µM)
C/C(=N\O)c1cc2c(cc1C(C)C)CC[C@H]1[C@](C)(C(=O)O)CCC[C@]21C	> 50	–	–	–	–	–
CC(C)c1cc2c(cc1C(=NO)c1cccc(C(F)(F)F)c1)[C@@]1(C)CCC[C@@](C)(C(=O)O)[C@@H]1CC2	1.56 to 3.13 (≈ 3.2 to 6.42 µM)	3.13 to 6.25 (≈ 6.42 to 12.8 µM)	3.13 to 6.25 (≈ 6.42 to 12.8 µM)	3.13 to 6.25 (≈ 6.42 to 12.8 µM)	1.56 to 3.13 (≈ 3.2 to 6.42 µM)	3.13 to 6.25 (≈ 6.42 to 12.8 µM)
CC(C)c1cc2c(cc1C(=NO)c1ccc(C(F)(F)F)cc1)[C@@]1(C)CCC[C@@](C)(C(=O)O)[C@@H]1CC2	> 50	–	–	–	–	–
C=CCON=C(c1cccc(C(F)(F)F)c1)c1cc2c(cc1C(C)C)CC[C@H]1[C@](C)(C(=O)O)CCC[C@]21C	> 50	–	–	–	–	–
C=CCON=C(c1ccc(Cl)cc1Cl)c1cc2c(cc1C(C)C)CC[C@H]1[C@](C)(C(=O)O)CCC[C@]21C	1.56 to 3.13 (≈ 2.95 to 5.92 µM)	12.5 (≈ 23.7 µM)	> 25	12.5 to 25 (≈ 23.7 to 47.3 µM)	1.56 to 3.13 (≈ 2.95 to 5.92 µM)	> 25
CCC(=NO)c1cc2c(cc1C(C)C)CC[C@H]1[C@](C)(C(=O)O)CCC[C@]21C	> 50	–	–	–	–	–
CON=C(c1cccc(C(F)(F)F)c1)c1cc2c(cc1C(C)C)CC[C@H]1[C@](C)(C(=O)O)CCC[C@]21C	1.56 to 3.13 (≈ 3.11 to 6.24 µM)	> 25	> 25	> 25	> 25	> 25
CC(C)C(=NOCc1ccccc1)c1cc2c(cc1C(C)C)CC[C@H]1[C@](C)(C(=O)O)CCC[C@]21C	> 50	–	–	–	–	–
CCCC(=NOCc1ccccc1)c1cc2c(cc1C(C)C)CC[C@H]1[C@](C)(C(=O)O)CCC[C@]21C	> 50	–	–	–	–	–
CN[C@H](CC(C)C)C(=O)N[C@H]1C(=O)N[C@@H](CC(N)=O)C(=O)N[C@H]2C(=O)N[C@H]3C(=O)N[C@H](C(=O)N[C@H](C(=O)O)c4cc(O)cc(O)c4-c4cc3ccc4O)[C@H](O)c3ccc(c(Cl)c3)Oc3cc2cc(c3O[C@@H]2O[C@H](CO)[C@@H](O)[C@H](O)[C@H]2O[C@H]2C[C@](C)(N)[C@H](O)[C@H](C)O2)Oc2ccc(cc2Cl)[C@H]1O [VANCOMYCIN]	0.78 to 1.56 (≈ 0.538 to 1.08 µM)	0.39 to 0.78 (≈ 0.269 to 0.538 µM)	0.39 to 0.78 (≈ 0.269 to 0.538 µM)	0.39 to 0.78 (≈ 0.269 to 0.538 µM)	0.2 to 0.39 (≈ 0.138 to 0.269 µM)	1.56 to 3.13 (≈ 1.08 to 2.16 µM)
C=CCON=C(CC)c1cc2c(cc1C(C)C)CC[C@H]1[C@](C)(C(=O)O)CCC[C@]21C	> 50	–	–	–	–	–
CCC(=NOC)c1cc2c(cc1C(C)C)CC[C@H]1[C@](C)(C(=O)O)CCC[C@]21C	> 50	–	–	–	–	–
CON=C(c1cc2c(cc1C(C)C)CC[C@H]1[C@](C)(C(=O)O)CCC[C@]21C)c1ccccc1C(F)(F)F	0.39 to 0.78 (≈ 0.778 to 1.56 µM)	6.25 to 12.5 (≈ 12.5 to 24.9 µM)	1.56 to 3.13 (≈ 3.11 to 6.24 µM)	3.13 to 6.25 (≈ 6.24 to 12.5 µM)	1.56 to 3.13 (≈ 3.11 to 6.24 µM)	3.13 to 6.25 (≈ 6.24 to 12.5 µM)
C=CCON=C(c1cccs1)c1cc2c(cc1C(C)C)CC[C@H]1[C@](C)(C(=O)O)CCC[C@]21C	25 to 50 (≈ 53.7 to 107 µM)	–	–	–	–	–
C=CCON=C(c1cc2c(cc1C(C)C)CC[C@H]1[C@](C)(C(=O)O)CCC[C@]21C)C1CCCCC1	12.5 to 25 (≈ 26.8 to 53.7 µM)	–	–	–	–	–
CC(C)C(=NO)c1cc2c(cc1C(C)C)CC[C@H]1[C@](C)(C(=O)O)CCC[C@]21C	> 50	–	–	–	–	–
C#CCON=C(CC)c1cc2c(cc1C(C)C)CC[C@H]1[C@](C)(C(=O)O)CCC[C@]21C	20 to 25 (≈ 48.8 to 61 µM)	–	–	–	–	–
CC(C)c1cc2c(cc1C(=NO)c1ccccc1)[C@@]1(C)CCC[C@@](C)(C(=O)O)[C@@H]1CC2	10 to 12.5 (≈ 23.8 to 29.8 µM)	–	–	–	–	–
C#CCO/N=C(\C)c1cc2c(cc1C(C)C)CC[C@H]1[C@](C)(C(=O)O)CCC[C@]21C	> 50	–	–	–	–	–
CON=C(c1ccc(C(F)(F)F)cc1)c1cc2c(cc1C(C)C)CC[C@H]1[C@](C)(C(=O)O)CCC[C@]21C	> 50	–	–	–	–	–
CCC(=NOCc1ccccc1)c1cc2c(cc1C(C)C)CC[C@H]1[C@](C)(C(=O)O)CCC[C@]21C	> 50	–	–	–	–	–
CN(C)[C@@H]1C(O)=C(C(N)=O)C(=O)[C@@]2(O)C(O)=C3C(=O)c4c(O)cccc4[C@@](C)(O)[C@H]3C[C@@H]12 [TETRACYCLINE]	< 0.2	< 0.2	< 0.2	< 0.2	< 0.2	> 25
CON=C(c1cccs1)c1cc2c(cc1C(C)C)CC[C@H]1[C@](C)(C(=O)O)CCC[C@]21C	6.25 to 12.5 (≈ 14.2 to 28.4 µM)	–	–	–	–	–
C=CCON=C(c1ccccc1)c1cc2c(cc1C(C)C)CC[C@H]1[C@](C)(C(=O)O)CCC[C@]21C	1.25 to 2.5 (≈ 2.72 to 5.44 µM)	1.56 to 2.5 (≈ 3.39 to 5.44 µM)	1.56 to 2.5 (≈ 3.39 to 5.44 µM)	1.56 to 2.5 (≈ 3.39 to 5.44 µM)	1.25 to 1.56 (≈ 2.72 to 3.39 µM)	2.5 to 3.13 (≈ 5.44 to 6.81 µM)
